# What was measured:
# [1] = Solubility of coumarins in RPMI 1640 media and DMSO; format: physicochemical; settings: for solubility: aqueous buffer, kinetic from dmso stock, pH = 7.0, in presence of the DMSO concentration of the same table line
# Procedure: The solubility of the aglycones was compared to the respective glycoside in RPMI 1640 media and in DMSO.
# (§1) Solubilisation of other compounds required the presence of DMSO. Esculetin, daphnetin, 4-(trifluoromethyl) coumarin, 4-(trifluoromethyl)-coumarin-7-0-glucose and cichoriin were dissolved in DMSO at 1000× final test concentration; when this solution was diluted to the concentration used in the experiments using 2× strength RPMI 1640 medium, the final concentration of DMSO was […] which alone had no effect on the fungi when tested in several experiments performed. Fraxetin required a final concentration of 0.2% DMSO, but this too had no effect on the growth of the fungi when tested in separate experiments.
# [2] = system: Trichophyton interdigitale NCPF335; test: Antifungal activity, growth in RPMI 1640 microtitre plates (OD 530 nm); format: cell-based; settings: for MIC: Trichophyton interdigitale, T. interdigitale NCPF335, 30° C.
# Procedure: (§2) Esculin, esculetin and a range of other coumarins and their glycosides were tested for their antifungal activity against Trichophyton rubrum, Trichophyton interdigitale and other fungi isolated from nails and skin.
# (§3) Suspensions of fungal conidia and hyphal fragments for use as experimental inocula were prepared by adding 3 ml of demineralised water or 0.15% (w/v) NaCl solution to a slope culture which had been incubated at 30° C. for 7 to 10 days and probing the surface of the culture with a sterile plastic transfer pipette. […] The resulting suspension was filtered through a double layer of sterile surgical gauze; if necessary a further volume of up to 3 ml of water or 0.15% (w/v) NaCl was used to wash through any spores or small hyphal fragments held on the gauze. 100 μl of this suspension, adjusted to an optical density between 0.14 and 0.16 at 530 nm (corresponding to between 0.5 and 1.5×10^6 propagules/ml) was added to the wells in sterile 96-well microtitre plates to which 100 μl of 2× strength RPMI 1640 media (a chemically-defined nutrient medium widely used in tissue culture and antimicrobial resistance testing) had been added. Inocula prepared in this way were used in all of the experiments; additionally, for some experiments with esculin shown in FIG. 4, the results obtained with standard inocula prepared as described above (labelled “young inoculum” in FIG. 4), were compared with the results obtained in similar tests using inocula which had been cultured for up to 9 weeks (labelled “old inoculum” in FIG. 4). As appropriate, coumarins were pre-dissolved in 2× strength RPMI 1640 medium before addition to the plate. Experiments with the yeasts Candida albicans and Candida krusei were set up in the same way, but in these cases, filtration of the cell suspensions was not necessary.
# as §1
# (§4) A series of dilutions of the coumarin solutions was prepared on the plates by mixing known volumes of the coumarin stock solutions in the wells with fresh volumes of 2×RPMI 1640 medium. Each concentration of coumarin was studied in triplicate wells. For observations on Trichophyton rubrum NCPF118 and Trichophyton interdigitale NCPF335, obtained from the National Collection of Pathogenic Fungi (Bristol), the plates were incubated in a Bio-Tek Powerwave XS scanning plate reader at 30° C., and fungal growth within the plates was measured at intervals of 2 h for up to 72 h or 96 h as specified in the text by recording the absorbance (optical density) of the wells at 530 nm. Observations on Candida albicans and Candida krusei were made in the same way, but the incubation temperature was 37° C. and the incubation time was 48 h. For observations with clinical fungal isolates obtained from the collection of M. Monod (Lausanne, Switzerland), the procedure was as described above except that in response to the relatively slow growth of these isolates, incubations were performed in a static incubator at 30° C. and the plates were read manually in a Bio-Tek Powerwave XS scanning plate reader at intervals of 24 h for up to 168 h, being returned to the incubator after each reading. Malassezia furfur grows poorly in the system described above, so for this organism, a standard inoculum of M. furfur was mixed with an equal volume of a solution of esculetin and the mixture was plated onto Petri dishes containing Sabouraud's agar medium. […]
# [3] = system: Trichophyton rubrum NCPF118; test: as above; format: cell-based; settings: for MIC: Trichophyton rubrum, T. rubrum NCPF118, 30° C., read-out: MIC
# Procedure: as §2, §3, §1, §4
# T. soudanense = test: Sensitivity of clinical isolates of dermatophytes to esculetin; format: cell-based, Trichophyton soudanense; set-up: key to Sensitive (S) or Resistant (R): Sensitive (S); Resistant (R); settings: 2 strains tested
# Procedure: as §2
# (§5) Suspensions of fungal conidia and hyphal fragments for use as experimental inocula were prepared by adding 3 ml of demineralised water or 0.15% (w/v) NaCl solution to a slope culture which had been incubated at 30° C. for 7 to 10 days and probing the surface of the culture with a sterile plastic transfer pipette. […] The resulting suspension was filtered through a double layer of sterile surgical gauze; if necessary a further volume of up to 3 ml of water or 0.15% (w/v) NaCl was used to wash through any spores or small hyphal fragments held on the gauze. […]
# (§6) A series of dilutions of the coumarin solutions was prepared on the plates by mixing known volumes of the coumarin stock solutions in the wells with fresh volumes of 2×RPMI 1640 medium. […] For observations on Trichophyton rubrum NCPF118 and Trichophyton interdigitale NCPF335, obtained from the National Collection of Pathogenic Fungi (Bristol), the plates were incubated in a Bio-Tek Powerwave XS scanning plate reader at 30° C., and fungal growth within the plates was measured at intervals of 2 h for up to 72 h or 96 h as specified in the text by recording the absorbance (optical density) of the wells at 530 nm. […]
# T. mentagrophytes = test: as above; format: cell-based, Trichophyton mentagrophytes; set-up: key to Sensitive (S) or Resistant (R): Sensitive (S); Resistant (R); settings: 27 strains tested
# Procedure: as §2, §5, §6
# [4] = system: T. mentagrophytes var interdigitale strain 386; test: as above; format: cell-based, Trichophyton mentagrophytes var. interdigitale; set-up: key to Sensitive (S) or Resistant (R): Sensitive (S); Resistant (R); settings: strain 386, 1 strain tested
# Procedure: as §2, §5, §6
# M. gypseum = test: as above; format: cell-based, Microsporum gypseum; set-up: key to Sensitive (S) or Resistant (R): Sensitive (S); Resistant (R); settings: clinical isolate, 1 strain tested
# Procedure: as §2, §5, §6
# Trichophyton rubrum = test: as above; format: cell-based; set-up: key to Sensitive (S) or Resistant (R): Sensitive (S); Resistant (R); settings: 48 strains tested
# Procedure: as §2
# (§7) Suspensions of fungal conidia and hyphal fragments for use as experimental inocula were prepared by adding 3 ml of demineralised water or 0.15% (w/v) NaCl solution to a slope culture which had been incubated at 30° C. for 7 to 10 days and probing the surface of the culture with a sterile plastic transfer pipette. […] The resulting suspension was filtered through a double layer of sterile surgical gauze; if necessary a further volume of up to 3 ml of water or 0.15% (w/v) NaCl was used to wash through any spores or small hyphal fragments held on the gauze. 100 μl of this suspension, adjusted to an optical density between 0.14 and 0.16 at 530 nm (corresponding to between 0.5 and 1.5×10^6 propagules/ml) was added to the wells in sterile 96-well microtitre plates to which 100 μl of 2× strength RPMI 1640 media (a chemically-defined nutrient medium widely used in tissue culture and antimicrobial resistance testing) had been added. Inocula prepared in this way were used in all of the experiments; additionally, for some experiments with esculin shown in FIG. 4, the results obtained with standard inocula prepared as described above (labelled “young inoculum” in FIG. 4), were compared with the results obtained in similar tests using inocula which had been cultured for up to 9 weeks (labelled “old inoculum” in FIG. 4). As appropriate, coumarins were pre-dissolved in 2× strength RPMI 1640 medium before addition to the plate. […]
# as §4, with “Each concentration of coumarin was studied in triplicate wells.” left out, “Observations on Candida albicans and Candida krusei were made in the same way, but the incubation temperature was 37° C. and the incubation time was 48 h.” left out, “reading.” for “reading. Malassezia furfur grows poorly in the system described above, so for this organism, a standard inoculum of M. furfur was mixed with an equal volume of a solution of esculetin and the mixture was plated onto Petri dishes containing Sabouraud's agar medium.”
# Microsporum canis = test: as above; format: cell-based; set-up: key to Sensitive (S) or Resistant (R): Sensitive (S); Resistant (R); settings: 4 strains tested
# Procedure: as §2, §7
# as §4, with “Each concentration of coumarin was studied in triplicate wells.” left out, “Observations on Candida albicans and Candida krusei were made in the same way, but the incubation temperature was 37° C. and the incubation time was 48 h.” left out, “reading.” for “reading. Malassezia furfur grows poorly in the system described above, so for this organism, a standard inoculum of M. furfur was mixed with an equal volume of a solution of esculetin and the mixture was plated onto Petri dishes containing Sabouraud's agar medium.”
# T. tonsurans = test: as above; format: cell-based, Trichophyton tonsurans; set-up: key to Sensitive (S) or Resistant (R): Sensitive (S); Resistant (R); settings: 2 strains tested
# Procedure: as §2, §5, §6
# [5] = system: Candida albicans, Cryptococcus neoformans, Saccharomyces cerevisiae and Aspergillus niger; settings: Sardari et al, Bioorg. Med. Chem. 7, 1999; cited from earlier work
# Aspergillus fumigatus = test: Sensitivity of other fungal isolates of pathogenic fungi to esculetin; format: cell-based; set-up: key to Sensitive (S) or Resistant (R): Sensitive (S); Resistant (R); settings: 1 strain tested
# Procedure: as §2, §3, §1, §4
# Alternaria spp. = test: as above; format: cell-based; set-up: key to Sensitive (S) or Resistant (R): Sensitive (S); Resistant (R); settings: 1 strain tested
# Procedure: as §2, §3, §1, §4
# [6] = system: Scopulariopsis brevicaulis; test: as above; format: cell-based; set-up: key to Sensitive (S) or Resistant (R): Sensitive (S); Resistant (R); settings: 4 strains tested
# Procedure: as §2, §3, §1, §4
# Fusarium spp. = test: as above; format: cell-based; set-up: key to Sensitive (S) or Resistant (R): Sensitive (S); Resistant (R); settings: 15 strains tested
# Procedure: as §2, §3, §1, §4
# Curvularia spp. = test: as above; format: cell-based; set-up: key to Sensitive (S) or Resistant (R): Sensitive (S); Resistant (R); settings: 1 strain tested
# Procedure: as §2, §3, §1, §4
# T. rubrum strain 1072 = test: Sensitivity of clinical isolates of dermatophytes to esculetin; format: cell-based, Trichophyton rubrum; set-up: key to Sensitive (S) or Resistant (R): Sensitive (S); Resistant (R); settings: T. rubrum strain 1072, 3 tested
# Procedure: as §2, §5, §6
# [7] = DMSO present for the stated solubility in RPMI 1640
# [8] = old inoculum (cultured up to 9 weeks) versus young inoculum, FIG. 4
structure (smiles),measurement,setting,value
"O=c1ccc2ccc(O)c(O)c2o1 [Daphnetin, 7,8-dihydroxycoumarin]",DMSO Concentration,[1]; [7],0.1 % v/v
same,solubility,[1],5000 µM
same,MIC,[2],250 µM
same,MIC,[3],500 µM
"O=c1ccc2cc(O)c(O)cc2o1 [Esculetin, 6,7 dihydroxycoumarin]","MIC esculetin, range in mM",T. soudanense,0.31 ± 0.27 mM
same,Sensitive (S) or Resistant (R),T. soudanense,S
same,"MIC esculetin, range in mM",T. mentagrophytes,1.1 ± 0.5 mM
same,Sensitive (S) or Resistant (R),T. mentagrophytes,S
same,"MIC esculetin, range in mM",[4],≧2 mM
same,Sensitive (S) or Resistant (R),[4],R
same,"MIC esculetin, range in mM",M. gypseum,≧2 mM
same,Sensitive (S) or Resistant (R),M. gypseum,R
same,"MIC esculetin, range in mM",Trichophyton rubrum,0.54 ± 0.37 mM
same,Sensitive (S) or Resistant (R),Trichophyton rubrum,S
same,"MIC esculetin, range in mM",Microsporum canis,1.0 ± 0.58 mM
same,Sensitive (S) or Resistant (R),Microsporum canis,S
same,"MIC esculetin, range in mM",T. tonsurans,0.25 ± 0.18 mM
same,Sensitive (S) or Resistant (R),T. tonsurans,S
same,solubility,[1]; RPMI 1640 medium with DMSO co-solvent,5000 µM
same,DMSO Concentration,[1]; pH 7,0.1 % v/v
same,antifungal activity against the fungi tested,[5],minimal antifungal activity
same,Sensitive (S) or Resistant (R),Aspergillus fumigatus,R
same,MIC,Aspergillus fumigatus; Aspergillus fumigatus,≥ 2000 µM
same,Sensitive (S) or Resistant (R),Alternaria spp.,S
same,MIC,Alternaria spp.; Alternaria,1000 µM
same,Sensitive (S) or Resistant (R),[6],R
same,MIC,[6]; Scopulariopsis brevicaulis,≥ 2000 µM
same,Sensitive (S) or Resistant (R),Fusarium spp.,R
same,MIC,Fusarium spp.; Fusarium,≥ 2000 µM
same,Sensitive (S) or Resistant (R),Curvularia spp.,R
same,MIC,Curvularia spp.; Curvularia,≥ 2000 µM
same,antifungal effect versus T. rubrum NCPF118,[3]; FIG. 3,dose-dependent antifungal effect
same,"MIC esculetin, range in mM",T. rubrum strain 1072,≧2 mM
same,Sensitive (S) or Resistant (R),T. rubrum strain 1072,R
"O=c1ccc2cc(OC3OC(CO)C(O)C(O)C3O)c(O)cc2o1 (stereo not shown) [Esculin, 6,7 dihydroxycoumarin-6-glucoside]",DMSO Concentration,[1]; [7],0 % v/v
same,solubility,[1],20000 µM
same,solubility in 2×RPMI 1640 solution (in words),[1]; without DMSO,dissolves readily
same,antifungal activity against the fungi tested,[5],minimal antifungal activity
same,effect on the growth of Trichophyton interdigitale NCPF335,"[2]; addition of β-glucosidase and esculin, FIG. 2",significantly inhibits fungal growth
same,sensitivity of older cultures of T. interdigitale NCPF335,[2]; [8],more sensitive
same,effect on the growth of Trichophyton rubrum NCPF118,"[3]; addition of β-glucosidase and esculin, FIG. 1",significantly inhibits fungal growth
same,sensitivity of older cultures of T. rubrum NCPF118,[3]; [8],more sensitive
"COc1cc2ccc(=O)oc2c(O)c1O [Fraxetin, 7,8 dihydroxy-6-methoxycoumarin]",DMSO Concentration,[1]; [7],0.4 % v/v
same,solubility,[1],5000 µM
same,MIC,[2],500 µM
same,MIC,[3],250 µM
